The target of the first assay is MAGE-A11:PCF11 (Homo sapiens (Human), UniProt P43364). The assay is described as follows: TR-FRET single point screening at 15 μM. Also on record: unit not given here. The conditions noted are these: single point TR-FRET screening at 15 μM against MAGE-A11:PCF11. The format is binding. Put shortly: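 Competition TR-FRET: compounds at final 15 μM mixed with 200 nM FAM-PCF11_4, 5 nM GST-MAGEA11 and 5 nM Tb-anti-GST in Tris pH 7.5/MgCl2/BSA/DTT buffer, room temperature, 90 min. Emission ratio 520/490 nm (340 nm excitation) expressed as % inhibition relative to positive and negative controls.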
Chain of MAGE-A11:PCF11 (P43364 218-429): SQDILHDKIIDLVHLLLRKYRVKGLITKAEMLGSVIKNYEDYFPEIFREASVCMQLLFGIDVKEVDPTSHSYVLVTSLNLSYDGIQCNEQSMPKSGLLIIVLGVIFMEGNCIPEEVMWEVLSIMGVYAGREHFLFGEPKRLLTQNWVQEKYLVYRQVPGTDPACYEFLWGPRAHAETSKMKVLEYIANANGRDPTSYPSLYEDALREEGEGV
For the compound `CCCN(CCCNc1c2ccc(Cl)cc2nc2ccc(OC)cc12)Cc1ccccn1` [SJ000520919], the TR-FRET signal is recorded as −146.2. On the same count and under the same terms, the result for `CCCN(CCCNc1c2ccc(Cl)cc2nc2ccc(OC)cc12)Cc1cccs1` [SJ000520920] reads −164.1.

`CCCN(CCCNc1c2ccc(Cl)cc2nc2ccc(OC)cc12)Cc1ccsc1` [SJ000520922]: the TR-FRET signal is on record as −258.

On to `CCCN(CCCNc1c2ccc(Cl)cc2nc2ccc(OC)cc12)Cc1ccc[nH]1` [SJ000520923], for which the TR-FRET signal is −271. Still for that read-out and setting: the figure for `CCCN(CCCNc1c2ccc(Cl)cc2nc2ccc(OC)cc12)Cc1ccccc1` [SJ000520925] is −127.9; for `CCCN(CCCNc1c2ccc(Cl)cc2nc2ccc(OC)cc12)Cc1ccc(C)s1` [SJ000520927] it is −124.8; for `CCCN(CCCNc1c2ccc(Cl)cc2nc2ccc(OC)cc12)Cc1ccc(Br)o1` [SJ000520929] it is −137.3. The same measure, in the same setting: the result for `CCCN(CCCNc1c2ccc(Cl)cc2nc2ccc(OC)cc12)Cc1cc(OC)ccc1O` [SJ000520933] reads −150.8; that for `CCCN(CCCNc1c2ccc(Cl)cc2nc2ccc(OC)cc12)Cc1ccco1` [SJ000520935], −202.6; that for `CCCN(CCCNc1c2ccc(Cl)cc2nc2ccc(OC)cc12)CC1CC1` [SJ000520936], −271.4. On the same count and under the same terms, the result for `CCCN(CCCNc1c2ccc(Cl)cc2nc2ccc(OC)cc12)Cc1ccoc1` [SJ000520937] reads −394.6; that for `CCCN(CCCNc1c2ccc(Cl)cc2nc2ccc(OC)cc12)CC1CCCCC1` [SJ000520938], −163.9; that for `CCCN(CCCNc1c2ccc(Cl)cc2nc2ccc(OC)cc12)CC(CC)CC` [SJ000520939], −160.3.

Consider `CCCN(CCCNc1c2ccc(Cl)cc2nc2ccc(OC)cc12)Cc1ccc2c(c1)OCO2` [SJ000520940], for which the TR-FRET signal was −193.5. On the same count and under the same terms, the figure for `CCCCCN(CCC)CCCNc1c2ccc(Cl)cc2nc2ccc(OC)cc12` [SJ000520941] is −210.3. The same measure, in the same setting: the result for `CCCN(CCCNc1c2ccc(Cl)cc2nc2ccc(OC)cc12)Cc1ccc(OC)cc1` [SJ000520943] reads −241.4. On the same count and under the same terms, the figure for `CCCN(CCCNc1c2ccc(Cl)cc2nc2ccc(OC)cc12)Cc1ccccc1F` [SJ000520944] is −118.6; for `CCCN(CCCNc1c2ccc(Cl)cc2nc2ccc(OC)cc12)Cc1ccc(F)cc1` [SJ000520946] it is −141.7; for `CCCN(CCCNc1c2ccc(Cl)cc2nc2ccc(OC)cc12)Cc1ccccc1[N+](=O)[O-]` [SJ000520947] it is −228.3. With `CCCN(CCCNc1c2ccc(Cl)cc2nc2ccc(OC)cc12)Cc1ccccc1OC` [SJ000520950], the TR-FRET signal is −271.1. `CCCN(CCCNc1c2ccc(Cl)cc2nc2ccc(OC)cc12)Cc1ccccc1C(=O)O` [SJ000520951] had a TR-FRET signal of −258.6. Same read-out and setting: the figure for `CCCN(CCCNc1c2ccc(Cl)cc2nc2ccc(OC)cc12)Cc1ccc2ccccc2c1` [SJ000520953] is −129.1; for `CCCN(CCCNc1c2ccc(Cl)cc2nc2ccc(OC)cc12)Cc1cccc(C)c1` [SJ000520954] it is −157.8; for `CCCN(CCCNc1c2ccc(Cl)cc2nc2ccc(OC)cc12)Cc1ccc(OC)c(OC)c1` [SJ000520957] it is −175.5. Compound `CCCN(CCCNc1c2ccc(Cl)cc2nc2ccc(OC)cc12)CCCc1ccccc1` [SJ000520958] yielded a TR-FRET signal of −267.2. Still for that read-out and setting: the figure for `CCCN(CCCNc1c2ccc(Cl)cc2nc2ccc(OC)cc12)CC(C)CC` (stereo not drawn) [SJ000520959] is −264.8; for `CCCN(CCCNc1c2ccc(Cl)cc2nc2ccc(OC)cc12)Cc1cc(C)ccc1C` [SJ000520960] it is −119.3. Same read-out and setting: the result for `CCCN(CCCNc1c2ccc(Cl)cc2nc2ccc(OC)cc12)Cc1cccc(OC)c1` [SJ000520961] reads −244.6; that for `CCCN(CCCNc1c2ccc(Cl)cc2nc2ccc(OC)cc12)CCc1ccccc1` [SJ000520962], −591.7. In the case of `CCCCCCN(CCC)CCCNc1c2ccc(Cl)cc2nc2ccc(OC)cc12` [SJ000520963], the TR-FRET signal is reported as −153.7. On the same count and under the same terms, the result for `COc1ccc2nc3cc(Cl)ccc3c(NCCCNCc3cccn3C)c2c1` [SJ000520985] reads −402.5; that for `COc1ccc2nc3cc(Cl)ccc3c(NCCCNCc3cccnc3)c2c1` [SJ000520986], −409; that for `COc1ccc2nc3cc(Cl)ccc3c(NCCCNCc3cn(C)c4ccccc34)c2c1` [SJ000520987], −252.4.

`COc1ccc2nc3cc(Cl)ccc3c(NCCCNCc3nccs3)c2c1` [SJ000520989] showed a TR-FRET signal of −355.2. On the same count and under the same terms, the result for `COc1ccc2nc3cc(Cl)ccc3c(NCCCNCc3cccc(C(F)(F)F)c3)c2c1` [SJ000520990] reads −408.1; that for `COc1ccc2nc3cc(Cl)ccc3c(NCCCNCc3cccc4c3OCO4)c2c1` [SJ000520991], −257.1; that for `COc1ccc2nc3cc(Cl)ccc3c(NCCCNCc3ccc(OC(F)(F)F)cc3)c2c1` [SJ000520992], −201. The same measure, in the same setting: the result for `COc1ccc2nc3cc(Cl)ccc3c(NCCCNCc3cc(F)ccc3OC)c2c1` [SJ000520993] reads −365.4; that for `COc1ccc2nc3cc(Cl)ccc3c(NCCCNCCC(C)(C)C)c2c1` [SJ000520994], −456.3. `CCCCNCCCNc1c2ccc(Cl)cc2nc2ccc(OC)cc12` [SJ000520995] displayed a TR-FRET signal of −405.5. Still for that read-out and setting: the figure for `COc1ccc2nc3cc(Cl)ccc3c(NCCCNCc3cc(Br)cs3)c2c1` [SJ000520996] is −287.6. Still for that read-out and setting: the figure for `COc1ccc2nc3cc(Cl)ccc3c(NCCCNCc3cc4ccccc4o3)c2c1` [SJ000520997] is −146.7; for `COc1ccc(F)c(CNCCCNc2c3ccc(Cl)cc3nc3ccc(OC)cc23)c1` [SJ000520998] it is −355; for `COc1ccc2nc3cc(Cl)ccc3c(NCCCNCc3c(F)cccc3C(F)(F)F)c2c1` [SJ000520999] it is −116.7. On the same count and under the same terms, the figure for `COc1ccc2nc3cc(Cl)ccc3c(NCCCNCc3cc4ccccc4s3)c2c1` [SJ000521000] is −220.4; for `COc1ccc2nc3cc(Cl)ccc3c(NCCCNCc3cc(OC(F)(F)F)ccc3OC)c2c1` [SJ000521001] it is −231.8.

`COc1ccc2nc3cc(Cl)ccc3c(NCCCNCc3cc(C(F)(F)F)ccc3OC)c2c1` [SJ000521002]: the TR-FRET signal was −290.2. On the same count and under the same terms, the result for `COc1ccc2nc3cc(Cl)ccc3c(NCCCNCC3CCOC3)c2c1` (stereo not drawn) [SJ000521003] reads −442.3; that for `COc1ccc2nc3cc(Cl)ccc3c(NCCCNCc3cccc(F)c3)c2c1` [SJ000521004], −366.2; that for `CCc1ccc(CNCCCNc2c3ccc(Cl)cc3nc3ccc(OC)cc23)cc1` [SJ000521005], −390.4.

`COc1ccc2nc3cc(Cl)ccc3c(NCCCNCc3nccn3C)c2c1` [SJ000521006]: the TR-FRET signal is −279.9.

Still in this assay, the particulars now being: single point TR-FRET screening of quinoline compounds against MAGE-A11:PCF11; 15 μM.
For `CCCN(CCCNc1c2ccc(Cl)cc2nc2ccc(OC)cc12)Cc1sccc1C` [SJ000520921], the TR-FRET signal is reported as −83.81.

`CCCN(CCCNc1c2ccc(Cl)cc2nc2ccc(OC)cc12)Cc1ccc(Br)s1` [SJ000520924] showed a TR-FRET signal of −56.45. Same read-out and setting: the result for `CCCN(CCCNc1c2ccc(Cl)cc2nc2ccc(OC)cc12)Cc1ccccc1O` [SJ000520926] reads −91.84; that for `CCCN(CCCNc1c2ccc(Cl)cc2nc2ccc(OC)cc12)Cc1ccccc1C(F)(F)F` [SJ000520928], 14.17; that for `CCCN(CCCNc1c2ccc(Cl)cc2nc2ccc(OC)cc12)Cc1cccc(OC)c1O` [SJ000520930], −81.96. Still for that read-out and setting: the result for `CCCN(CCCNc1c2ccc(Cl)cc2nc2ccc(OC)cc12)Cc1cc(F)ccc1OC` [SJ000520931] reads 1.847. Same read-out and setting: the result for `CCCN(CCCNc1c2ccc(Cl)cc2nc2ccc(OC)cc12)Cc1ccc(C)o1` [SJ000520932] reads 0.9854. For `CCCN(CCCNc1c2ccc(Cl)cc2nc2ccc(OC)cc12)Cc1c(C)cc(C)cc1C` [SJ000520934], the TR-FRET signal is on record as −46.32. On the same count and under the same terms, the figure for `CCCN(CCCNc1c2ccc(Cl)cc2nc2ccc(OC)cc12)Cc1ccc(F)c(F)c1` [SJ000520942] is 0.9703. The same measure, in the same setting: the result for `CCCN(CCCNc1c2ccc(Cl)cc2nc2ccc(OC)cc12)Cc1cccc(F)c1` [SJ000520945] reads −90.13; that for `CCCN(CCCNc1c2ccc(Cl)cc2nc2ccc(OC)cc12)Cc1cccc([N+](=O)[O-])c1` [SJ000520948], −10.74; that for `CCCN(CCCNc1c2ccc(Cl)cc2nc2ccc(OC)cc12)Cc1ccc([N+](=O)[O-])cc1` [SJ000520949], −9.039. The same measure, in the same setting: the result for `CCCN(CCCNc1c2ccc(Cl)cc2nc2ccc(OC)cc12)Cc1cccc2ccccc12` [SJ000520952] reads −40.77. Turning to `CCCN(CCCNc1c2ccc(Cl)cc2nc2ccc(OC)cc12)Cc1ccc(N(C)C)cc1` [SJ000520955], the TR-FRET signal was −10.06. On the same count and under the same terms, the figure for `CCCN(CCCNc1c2ccc(Cl)cc2nc2ccc(OC)cc12)Cc1ccc(Cl)cc1Cl` [SJ000520956] is 9.598; for `COc1ccc2nc3cc(Cl)ccc3c(NCCCNCc3cccc(OC(F)(F)F)c3)c2c1` [SJ000520988] it is −73.54; for `CCCN(CCCNc1ccnc2cc(C(F)(F)F)ccc12)Cc1cncc(Br)c1` [SJ000521007] it is 4.323. Same read-out and setting: the result for `CCCN(CCCNc1ccnc2cc(C(F)(F)F)ccc12)Cc1cccc(F)c1` [SJ000521008] reads 27.85.

These data come from US20240246941A1, “SUBSTITUTED 4-(3-AMINOPROP-1-YL)AMINOQUINOLINE ANALOGS AS MODULATORS OF MELANOMA-ASSOCIATED ANTIGEN 11 UBIQUITIN LIGASE” (ST. JUDE CHILDREN'S RESEARCH HOSPITAL, INC., priority 2020, published 2024).
